This is an account of results in patent US3965109A, “Certain aryl amino pyridines” (priority 1971, dated 1976).

Data set [1] concerns Piricularia oryzae (rice). It is filed as in vivo. The note with it: 100 ppm spray and drench; 7 days.
Another data set concerns Uncinula necator (vine). The data set is described as follows: Fungicidal test against foliar disease D (foliage spray plus soil drench). It is filed as in vivo. The note with it: 100 ppm spray and drench; 10 days.
Data set [2] concerns Phaedon cochleariae (mustard beetles). Nature of the data set: Pest toxicity test. It is filed as in vivo.
Data set [3] deals with Plasmopara viticola (vine). The data set is described as follows: Fungicidal test against foliar disease C (foliage spray plus soil drench). As to conditions: 100 ppm spray and drench; 10 days. It is filed as in vivo.
Data set [4] concerns Puccinia recondita (wheat). The data set is described as follows: Fungicidal test against foliar disease A (foliage spray plus soil drench). It is filed as in vivo. The note with it: 100 ppm spray and drench; 10 days.
For data set [5], the system named is Aedes aegypti (mosquito adults). Nature of the data set: Pest toxicity test. As to conditions: 0.01% by weight; plywood; 1 day. It is filed as in vivo.
Data set [6] deals with Pieris brassicae (cabbage white caterpillars). Nature of the data set: Pest toxicity test. The note with it: 0.1% by weight, 2 days. It is filed as in vivo.
For data set [7], the system named is Musca domestica (houseflies). Nature of the data set: Pest toxicity test, contact test. It is filed as in vivo. The note with it: 0.1% by weight; milk/sugar; 2 days; flies sprayed directly.
The subject of data set [8] is Plutella maculipennis (diamond back moth larvae). Nature of the data set: Pest toxicity test. It is filed as in vivo.
The subject of data set [9] is Tetranychus telarius (red spider mites, adults). The data set is described as follows: Pest toxicity test. The note with it: 0.1% by weight; French bean; 3 days. In kind it is in vivo.
Data set [10] relates to Aedes aegypti (mosquito larvae). The data set is described as follows: Pest toxicity test. It is filed as in vivo. As to conditions: for Mortality grading (kill): 0.01% by weight, water, 1 day.
In the next data set the test system is Megoura viceae. The data set is described as follows: Pest toxicity test. It is filed as in vivo. As to conditions: 0.1% by weight; broad bean; 2 days.
Data set [11] relates to Phytophthora infestans (tomato). In kind it is in vivo. As to conditions: 100 ppm spray and drench; 3 days.
In a further data set the test system is Aphis fabae. Nature of the data set: Pest toxicity test. In kind it is in vivo. The note with it: 0.1% by weight; broad bean; 2 days.
Another data set has as its system Lettuce. Nature of the data set: Herbicidal test, pre- and post-emergence. It is filed as in vivo. As to conditions: 10 kg/ha; scale 0 to 3 (complete kill).
The test system of a further data set is Wheat. Nature of the data set: Herbicidal test, pre- and post-emergence. In kind it is in vivo. The note with it: 10 kg/ha; scale 0 to 3 (complete kill).
The next data set has as its system Tomato. Nature of the data set: Herbicidal test, pre- and post-emergence. As to conditions: 10 kg/ha; scale 0 to 3 (complete kill). It is filed as in vivo.
A further data set deals with Maize. The data set is described as follows: Herbicidal test, pre- and post-emergence. It is filed as in vivo. As to conditions: 10 kg/ha; scale 0 to 3 (complete kill).
In a further data set the test system is Carrot. The data set is described as follows: Further herbicidal test, various rates. It is filed as in vivo. As to conditions: scale 0 to 5 (complete kill).
The subject of data set [12] is Tetranychus telarius (red spider mites, eggs). Nature of the data set: Pest toxicity test. In kind it is in vivo. As to conditions: 0.1% by weight; French bean; 3 days.
The next data set has as its system Oat. Nature of the data set: Further herbicidal test, various rates. The note with it: scale 0 to 5 (complete kill). It is filed as in vivo.
In another data set the test system is Kale. The data set is described as follows: Further herbicidal test, various rates. In kind it is in vivo. The note with it: scale 0 to 5 (complete kill).
The subject of a further data set is Onion. The data set is described as follows: Further herbicidal test, various rates. It is filed as in vivo. The note with it: scale 0 to 5 (complete kill).
In the next data set the test system is Barley. The data set is described as follows: Further herbicidal test, various rates. In kind it is in vivo. As to conditions: scale 0 to 5 (complete kill).
The subject of the next data set is Pea. The data set is described as follows: Further herbicidal test, various rates. It is filed as in vivo. As to conditions: scale 0 to 5 (complete kill).
In data set [13] the test system is Agriolimax reticulatus (slugs). Nature of the data set: Molluscicidal activity test. It is filed as in vivo, Agriolimax reticulatus (Mull). The note with it: pellet with 4% by weight; 6 days; 10°C. As to the method: A weighed sample of the compound under test was dissolved in 0.5 c.c. of an ethanol and acetone mixture 50:50 v/v). The solution was diluted with 0.5 cc water and poured onto a calf feeding pellet in a glass Petri dish. The pellet was then air dried for 24 hours. The weight of compound used was chosen so that the dried pellet contained 4% by weight of the active ingredient. Two replicates each consisting of a plastic Petri dish containing a pellet, 2 slugs, and a moistened filter paper to maintain a high relative humidity were used in each test. The dishes were left in a cold room (10°C.) After 6 days the kill was assessed.
The slugs used were Agriolimax reticulatus (Mull), and they had been starved for 24 hours before the commencement of the tests.

For another data set, the system named is Sugar beet. Nature of the data set: Further herbicidal test, various rates. It is filed as in vivo. The note with it: scale 0 to 5 (complete kill).
Another data set concerns Rice. Nature of the data set: Further herbicidal test, various rates. It is filed as in vivo. As to conditions: scale 0 to 5 (complete kill).
[14] abbreviates: 0.1% by weight, mustard/paper, 2 days.

Each structure is given as a SMILES string.

For the compound `Fc1nc(F)c(Cl)c(Nc2c(Cl)c(Cl)c(Cl)c(Cl)c2Cl)c1Cl` [Compound 9, 3,5-Dichloro-2,6-difluoro-4(pentachloroanilino)pyridine], the “Amount of disease grading, disease E” value in [1] is 3 (0 to 5). The “Amount of disease grading, disease D” value in the data set with Uncinula necator (vine) is given as 3 (0 to 5). The “Mortality grading (kill)” value is given as 1 (key: O represents less than 30% kill; 1 represents 30 - 49% kill; 2 represents 60 - 90% kill; 3 represents over 90% kill; C indicates a chemosterilant effect.; A indicates an antifeeding effect.) in data set [2] (in vivo); 0 (O represents less than 30% kill) in data set [5]; 0 (O represents less than 30% kill) in [6]; 3 (key: O represents less than 30% kill; 1 represents 30 - 49% kill; 2 represents 60 - 90% kill; 3 represents over 90% kill; C indicates a chemosterilant effect.; A indicates an antifeeding effect.) in data set [8] (in vivo); 3 (3 represents over 90% kill) in data set [9]; 3 (3 represents over 90% kill) in [10]. In addition, the “Mortality grading (kill)” value in the data set with Megoura viceae and in the data set on Aphis fabae was 0 (O represents less than 30% kill) each time. The “Amount of disease grading, disease C” value in [3] was 0 (61 to 100). In addition, the “Amount of disease grading, disease A” value in data set [4] is reported as 3 (0 to 5). Also, the “Mortality grading (kill), contact test” value in [7] is given as 3 (3 represents over 90% kill). Also, in data set [11], the “Amount of disease grading, disease B” value was 0 (61 to 100).
As to `N#Cc1cc([N+](=O)[O-])ccc1Nc1c(Cl)c(F)nc(F)c1Cl` [Compound 26, 4(2-Cyano-4-nitroanilino)-3,5-dichloro-2,6-difluoropyridine], the “Amount of disease grading, disease E (Table 4)” value in data set [1] is listed as 0 (61 to 100). Moreover, the “Amount of disease grading, disease C (Table 4)” value in [3] is 3 (0 to 5). The “Damage to plants, post-emergence” value with Lettuce is listed as 3; in the data set on Tomato, 0; with Maize it was 0. The “Damage to plants, pre-emergence” value in the data set with Lettuce is 3; with Wheat, 1; with Tomato it was 3; with Maize, 0. Further, the “Amount of disease grading, disease B (Table 4)” value in [11] is listed as 3 (0 to 5).
`Fc1nc(F)c(Cl)c(Nc2c(Cl)cc(Cl)cc2Cl)c1Cl` [Compound 7, 3,5-Dichloro-2,6-difluoro-4(2,4,6-trichloroanilino)pyridine]: the “Amount of disease grading, disease E” value in data set [1] is on record as 0 (61 to 100). Moreover, the “Amount of disease grading, disease D” value with Uncinula necator (vine) was 0 (61 to 100). In addition, the “Amount of disease grading, disease C” value in data set [3] was 0 (61 to 100). Besides, the “Amount of disease grading, disease A” value in data set [4] is on record as 2 (6 to 25). Further, the “abnormal growth effects in larva of mosquitos” value in data set [10] (in vivo) is listed as “abnormal growth effects”. Also, the “Amount of disease grading, disease B” value in [11] is on record as 0 (61 to 100).
Take `O=[N+]([O-])c1ccc(Nc2c(F)c(F)nc(F)c2Cl)c(C(F)(F)F)c1` [Compound 32, 3-Chloro-4(4-nitro-2-trifluoromethylanilino)-2,5,6-trifluoropyridine]: the “Damage to plants, post-emergence” value in the data set with Carrot (1 kg/hectare) is recorded as 2; in the data set on Carrot (5 kg/hectare) it was 4; with Oat (1 kg/hectare) it was 1; in the data set on Oat (5 kg/hectare) it was 0; with Lettuce, 3; in the data set on Kale (1 kg/hectare), 5. In addition, the “Damage to plants, post-emergence” value was determined as 4 in the data set with Kale (5 kg/hectare); 1 in the data set on Onion (1 kg/hectare); 0 with Onion (5 kg/hectare); 1 in the data set with Barley (1 kg/hectare); 1 with Barley (5 kg/hectare); 3 in the data set with Pea (1 kg/hectare). The “Damage to plants, post-emergence” value in the data set with Pea (5 kg/hectare) was 2; with Wheat, 0; in the data set on Sugar beet (1 kg/hectare) it was 5; in the data set with Sugar beet (5 kg/hectare), 5; in the data set on Tomato, 3; with Rice (1 kg/hectare), 0. Besides, the “Damage to plants, post-emergence” value in the data set with Rice (5 kg/hectare) and in the data set with Maize was 0 throughout. The “Damage to plants, pre-emergence” value in the data set with Carrot (1 kg/hectare) is reported as 3; in the data set on Carrot (5 kg/hectare) it was 5; with Oat (1 kg/hectare) it was 3; with Oat (5 kg/hectare), 4; with Lettuce it was 3; with Kale (1 kg/hectare) it was 4. Also, the “Damage to plants, pre-emergence” value in the data set on Kale (5 kg/hectare) is 5; in the data set on Onion (5 kg/hectare), 5; in the data set on Barley (1 kg/hectare), 4; in the data set with Barley (5 kg/hectare), 4; with Pea (1 kg/hectare), 3; with Pea (5 kg/hectare), 5. In addition, the “Damage to plants, pre-emergence” value turned out to be 3 in the data set on Wheat; 4 with Sugar beet (1 kg/hectare); 5 in the data set on Sugar beet (5 kg/hectare); 3 in the data set with Tomato; 4 in the data set on Rice (1 kg/hectare); 5 with Rice (5 kg/hectare). Besides, the “Damage to plants, pre-emergence” value in the data set on Maize worked out at 1. In the data set with Uncinula necator (vine), the “Amount of disease grading, disease D (Table 4)” value is 3 (0 to 5). For the same compound, the “Mortality grading (kill)” value in data set [2] (setting [14]) is recorded as 0 (O represents less than 30% kill); in [12] it was 3 (3 represents over 90% kill); in data set [5] it was 2 (2 represents 60 - 90% kill); in data set [6], 3 (3 represents over 90% kill); in [8] (setting [14]), 2 (2 represents 60 - 90% kill); in data set [9], 3 (3 represents over 90% kill). Moreover, the “Mortality grading (kill)” value is on record as 3 (3 represents over 90% kill) in [10], 0 (O represents less than 30% kill) in the data set on Megoura viceae and 3 (3 represents over 90% kill) with Aphis fabae. Further, the “Amount of disease grading, disease C (Table 4)” value in data set [3] is reported as 3 (0 to 5). The “Amount of disease grading, disease A (Table 4)” value in data set [4] was 3 (0 to 5). Besides, the “% Kill of slugs” value in data set [13] was 100%.
